Data: patent publication US20240327425A1, “KRAS G12D INHIBITOR AND USE THEREOF” (SHANGHAI DE NOVO PHARMATECH CO., LTD., priority 2021, published 2024)

Legend:
[1] = test system: phosphorylation level of ERK1/2 in ASPC-1 human pancreatic cancer cells; test: pERK cell level assay (PHOSPHO-ERK1/2 HTRF kit); assay type: cell-based; conditions: Homo sapiens, ASPC1, pERK1/2 (THR202/TYR204), Aspc-1 cells, 4 hours incubation
Description: In this experiment, the phosphorylation level of ERK1/2 in AGS human gastric cancer cells or ASPC-1 human pancreatic cancer cells was detected using PHOSPHO-ERK1/2 (THR202/TYR 204) (Cisibo, 64ERKPEH) kit, and the inhibitory effect of the compounds on KRAS G12D was investigated based on the phosphorylation level of ERK1/2.
On day 1, the density of AGS cell (ATCC) suspension was adjusted to 2.1×10^5 cells/mL, then the suspension was spread in a 96-well plate at 95 μL/well so that there were 2×10^4 cells per well, and the cell culture plate was incubated in a 37° C., 5% CO2 incubator for overnight. On day 2, the compound was serially diluted with 100% dimethyl sulfoxide, and then further diluted with a complete culture medium (RPMI-1640+10% FBS+1% PS) to make a working solution of the compound, which was added to a 96-well cell culture plate at 5 μL/well, and incubated in a 37° C., 5% CO2 incubator for 4 hours. After the incubation was completed, the culture medium was discarded, then 1× lysis buffer was added thereto at 50 μL/well, and the plate was shaken at room temperature for 30 minutes. 16 μL of lysis buffer was added to a white 384-well shallow well plate, then 4 μL of pre-formulated antibody mixture was added thereto, and the plate was sealed with microplate sealer and incubated at room temperature for overnight. On day 3, detection was performed on a TECAN M1000 Pro microplate reader using the HTRF setting, and the IC50 value of the compound was calculated.

[2] = test system: GP2D human colon cancer cells; test: Cell proliferation assay (Cell Titer-Glo), GP2D; assay type: cell-based; conditions: Homo sapiens, 72 hours
Description: (§1) On day 1, AGS human gastric cancer cells, ASPC-1 human pancreatic cancer cells, or GP2D human colon cancer cells (Nanjing Cobioer Biosciences Co. Ltd.) in the logarithmic growth phase were taken, digested with an appropriate amount of trypsin, formulated into a single cell suspension using RPMI 1640 (Gibco) medium containing 10% fetal bovine serum and 1% penicillin-streptomycin, counted to adjust the cell density, inoculated in a 96-well plate at 95 μL/well so that there were 3000 cells per well, and then the cell culture plate was incubated in a 37° C., 5% CO2 incubator for overnight. On day 2, a 10 mM concentrated stock solution of KRAS G12D inhibitor was 3-fold serially diluted with dimethyl sulfoxide solution, and then diluted with AGS complete culture medium to make a working solution, which was added to a cell culture plate at 5 μL/well so that the compound had the highest concentration of 10 μM and the lowest concentration of 0.0015 μM, and the control group was 0.5% dimethyl sulfoxide. The cell culture plate was briefly centrifuged and then incubated in a CO2 incubator for 72 hours. On day 5, the cell culture plate was taken out, added with Cell Titer-Glo (Promega) detection reagent in each well, incubated in the dark for 10 minutes, and then luminescence was detected using a microplate reader (Tecan, Infinite M1000 Pro). Data were analyzed using Graphpad software, and curve fitting was performed with four-parameter equation and the IC50 value of the inhibitor was calculated.

[3] = test system: GP2D human colon cancer cells subcutaneous xenograft tumor; test: In vivo pharmacodynamic experiment of subcutaneous xenograft tumor model in mice of GP2D human colon cancer cells; conditions: BALB/c nude mice; for Tumor volume (11 days, mm^3): 11 days (at grouping)
Description: Cell culture: GP2D human colon cancer cells were maintained in monolayer culture in DMEM culture medium containing 10% fetal bovine serum in a constant temperature incubator containing 5% CO2 at 37° C. Tumor cells were passaged twice a week. Cells in the exponential growth phase were harvested and counted for inoculation.
Experimental animals: BALB/c nude mice, 6 to 8 weeks, 18 to 22 g, purchased from Jiangsu GemPharmatech Co. Ltd.
Experimental method: GP2D cell line ([…]) was inoculated subcutaneously on the right back of experimental mice. The inoculation volume of each mouse was 0.1 mL. The growth of the tumor was observed regularly. When the tumor grew to about 150 mm^3, the mice were randomly grouped according to the tumor size and body weight, and the drug was administrated according to the administration plan shown in Table 1. The body weight and tumor size were measured twice a week throughout the experiment.
tumor volume (mm^3)=0.5×(tumor long diameter×tumor short diameter^2). Tumor size calculation formula: […]

[4] = test system: ASPC-1 human pancreatic cancer cells; test: Cell proliferation assay (Cell Titer-Glo), ASPC-1; assay type: cell-based; conditions: Homo sapiens, ASPC1, Aspc-1, 72 hours
Description: as §1

[5] = target: Human KRAS G12D His-tagged protein (Homo sapiens (Human), UniProt P01116, G12D); test: KRAS G12D binding assay (TR-FRET); conditions: GDP 20 nM, GTP-Red
Description: The binding ability of the compound to KRAS G12D protein was detected by TR-FRET method, and the inhibitory activity of the compound on KRAS G12D protein was evaluated. Human KRAS G12D His-tagged (Cisbio, 63ADK000CB27PEG) protein was 100-fold diluted with PPI Eu detection buffer (Cisbio, 61DB9RBF), then 5 μL of which was added to a 384-well plate and centrifuged at 2000 rpm for 40 seconds. A 10 mM concentrated stock solution of the test compound was prepared with dimethyl sulfoxide, 3-fold serially diluted, then diluted to make a working solution (0.5% DMSO) with PPI Eu detection buffer, added to a 384-well plate at 5 μL/well, with the control group added with 0.5% dimethyl sulfoxide and the highest concentration of the test compound at 10 μM, and centrifuged at 2000 rpm for 40 seconds. An 80 nM GDP standard working solution (Cisbio, 63ADK000CB27PEG) was prepared with PPI Eu detection buffer and added to a 384-well plate at 5 μL/well, with the final concentration of GDP standard working solution at 20 nM. The plate was centrifuged at 2000 rpm for 40 seconds and reacted at room temperature for 30 minutes. 1×6His Eu cryptate antibody and GTP-Red reagent (Cisbio, 63ADK000CB27PEG) were prepared with PPI Eu detection buffer, mixed in a volume ratio of 1:1, 5 μL of which was then added to a 384-well plate, centrifuged at 2000 rpm for 40 seconds, and incubated at room temperature for 30 minutes. The fluorescence intensity at 620 nm and 665 nm was detected by a microplate reader, and the inhibitory activity of the compound on KRAS G12D protein was obtained by fitting a four-parameter equation.

Chain of Human KRAS G12D His-tagged protein (P01116-2 other isoform, or with tags, fused parts or gaps G12D): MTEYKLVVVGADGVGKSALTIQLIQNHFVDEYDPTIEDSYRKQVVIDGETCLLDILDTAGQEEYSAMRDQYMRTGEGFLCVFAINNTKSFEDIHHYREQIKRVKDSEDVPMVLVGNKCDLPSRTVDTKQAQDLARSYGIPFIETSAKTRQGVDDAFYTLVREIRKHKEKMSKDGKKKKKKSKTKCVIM

SMILES: N#Cc1c(N)sc2cccc(-c3c(Cl)c4c5c(nc(OC[C@@]67CCCN6C[C@H](F)C7)nc5c3F)N3C[C@H]5CC[C@H](N5)[C@H]3CO4)c12 (single isomer, unassigned) [Compound I-7-2]
- IC50 [1]: 0.544 nM
- IC50 [2]: 0.095 nM
- Tumor volume (11 days, mm^3) ([3]; 3 mg/kg i.p. twice a day): 140.32 ± 19.74 mm^3
- Tumor volume (21 days, mm^3) ([3]; 3 mg/kg i.p. twice a day): 80.27 ± 11.38 mm^3
- T/C (%) ([3]; 3 mg/kg i.p. twice a day): 18.6%
- Tumor regression rate (%) ([3]; 3 mg/kg i.p. twice a day): −39.9%
- Tumor volume (11 days, mm^3) ([3]; 10 mg/kg i.p. twice a day): 139.69 ± 17.49 mm^3
- Tumor volume (21 days, mm^3) ([3]; 10 mg/kg i.p. twice a day): 70.19 ± 11.89 mm^3
- T/C (%) ([3]; 10 mg/kg i.p. twice a day): 15.5%
- Tumor regression rate (%) ([3]; 10 mg/kg i.p. twice a day): −49.8%
- IC50 [4]: 1.7 nM
- IC50 [5]: 2.44 nM
